Measured values published in patent US20110009435A1, “HETERO BICYCLIC CARBOXAMIDE DERIVATIVES AND THEIR PHARMACEUTICAL USE AND COMPOSITIONS” (Pfizer, Inc., priority 2007, published 2011).

Legend:
Type in all cases: biochemical
Human recombinant MMP-7 = biological target: T1, Human recombinant MMP-7 (Homo sapiens, UniProt P09237); assay: In vitro MMP inhibition assay, MMP-7 (fluorogenic peptide substrate cleavage, Ki); settings: human MMP-7 (CD); read-out: hMMP Ki 07/CD
T1 construct: 07/CD; made in house
T1 sequence (P09237 95-267): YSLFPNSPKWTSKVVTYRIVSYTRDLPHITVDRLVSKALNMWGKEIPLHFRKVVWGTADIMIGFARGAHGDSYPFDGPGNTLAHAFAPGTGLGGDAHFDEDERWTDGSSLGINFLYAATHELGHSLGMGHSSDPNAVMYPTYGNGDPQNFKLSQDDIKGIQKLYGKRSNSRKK
Experimental: (§1) Matrix Metalloproteinase inhibitor compounds were analyzed in in vitro MMP Inhibition assays to determine their ability to inhibit the MMP cleavage of peptide substrates. Inhibition constants (Ki) were calculated from the assayed compound-MMP interactions.
(§2) Human recombinant MMP-1, MMP-2, MMP-3, MMP-7, MMP-9, MMP-12, MMP-13, MMP-14 and MMP-15 were used in these assays. The enzymes are prepared following known laboratory procedures. Protocols for the preparation and use of these enzymes are available in the scientific literature. See, e.g., Enzyme Nomenclature (Academic Press, San Diego, Calif., 1992) and the citations therein. See also Frije et al., J. Biol. Chem., 26(24), 16766-73 (1994).
The MMP-7 cDNA may be used to express the enzyme in E. coli inclusion bodies. Then the enzyme is solubilized in urea, purified on a preparative […] reverse phase HPLC column, and refolded in the presence of zinc acetate and purified for use. […]
(§3) The inhibitors are analyzed using a single low enzyme concentration with a single substrate concentration fixed at or below the Km. […] Apparent inhibitory constants are determined by non-linear regression of reaction velocity as a function of inhibitor and enzyme concentration using Morrison's equation, as described by Kuzmic, Anal. Biochem. 286, 45-50 (2000). […]

Human recombinant MMP-2 = biological target: T2, Human recombinant MMP-2 (Homo sapiens, UniProt P08253); assay: In vitro MMP inhibition assay, MMP-2 (fluorogenic peptide substrate cleavage, Ki); settings: human MMP-2, full length (FL); read-out: hMMP Ki 02/FL
T2 construct: made in house; host or cells: MMP-2-transfected p2AHT2 cells
T2 sequence (P08253 110-660): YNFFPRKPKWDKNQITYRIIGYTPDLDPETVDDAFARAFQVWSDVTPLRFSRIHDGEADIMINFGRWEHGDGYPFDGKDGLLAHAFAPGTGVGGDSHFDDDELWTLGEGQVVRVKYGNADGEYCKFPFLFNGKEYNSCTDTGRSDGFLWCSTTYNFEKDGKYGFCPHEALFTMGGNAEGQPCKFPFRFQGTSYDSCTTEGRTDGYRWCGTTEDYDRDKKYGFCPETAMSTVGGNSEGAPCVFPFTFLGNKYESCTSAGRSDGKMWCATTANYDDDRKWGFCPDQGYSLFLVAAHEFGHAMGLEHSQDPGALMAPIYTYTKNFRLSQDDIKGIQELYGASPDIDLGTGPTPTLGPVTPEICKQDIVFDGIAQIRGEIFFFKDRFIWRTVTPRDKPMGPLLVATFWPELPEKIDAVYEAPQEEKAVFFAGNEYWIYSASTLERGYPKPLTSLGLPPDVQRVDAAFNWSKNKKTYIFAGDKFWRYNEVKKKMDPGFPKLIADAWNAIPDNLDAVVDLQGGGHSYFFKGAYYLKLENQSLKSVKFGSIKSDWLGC
Experimental: as §1, §2
The MMP-1 proenzyme may be purified from spent media of MMP-1-transfected HT-1080 cells and the protein purified on a zinc chelating column. The MMP-2 proenzyme may be purified by gelatin Sepharose chromatography from MMP-2-transfected p2AHT2 cells. […]
as §3

Human recombinant MMP-14 = biological target: T3, Human recombinant MMP-14 (Homo sapiens, UniProt P50281); assay: In vitro MMP inhibition assay, MMP-14 catalytic domain (fluorogenic peptide substrate cleavage, Ki); settings: human MMP-14, catalytic domain (CD); read-out: hMMP Ki 14/CD
T3 construct: The MMP-14 cDNA may be used to express the catalytic domain enzyme in E. coli inclusion bodies; made in house
Experimental: as §1, §2
The MMP-14 cDNA may be used to express the catalytic domain enzyme in E. coli inclusion bodies. Then the enzyme is solubilized in urea, purified on a preparative […] reverse phase HPLC column, and refolded in the presence of zinc acetate and purified for use.
(§4) The fluorogenic, methoxycoumarin-containing polypeptide substrate MCA-ArgProLeuGlyLeuDpaAlaArgGluArgNH2 was used as the MMP substrate in the MMP inhibition assays for human recombinant MMP-1, MMP-2, MMP-7, MMP-9, MMP-12, MMP-13, MMP-14 and MMP-15. Here, “MCA” is 7-methoxycoumarin-4-yl acetyl and “Dpa” is 3-(2,4-dinitrophenyl)-L-2,3-di-aminopropionyl group. In the absence of MMP inhibitory activity, the substrate is cleaved at the Gly-Leu peptide bond. The cleavage separates the highly fluorogenic peptide from the 2,4-dinitrophenyl quencher, resulting in an increase of fluorescent intensity.
(§5) For the human MMP-1, MMP-2, MMP-7, MMP-9, MMP-12, MMP-13, MMP-14 and MMP-15 assays, dilutions of the inhibitors (or salts thereof) were prepared in 100% dimethyl sulfoxide (DMSO). The stock solutions were diluted in Buffer A (100 mM Tris-HCl, 100 mM NaCl, 10 mM CaCl2, 0.005% polyoxyethylene 23 lauryl ether, pH 7.5) to obtain solutions with different compound concentrations, i.e., assay solutions with different concentrations of the assayed MMP inhibitory compound in 1% DMSO. The experiment controls contained the same amount of Buffer A/DMSO as the assayed sample, but contained no inhibitor.
(§6) To determine Ki, the inhibitor samples are incubated at room temperature for 1 hr in the presence of enzyme and then 4 μM of appropriate MMP substrate was added, and samples were analyzed on a Tecan SpectraFlour Plus plate reader. The excitation wavelength is 330 nm, and the emission (fluorescence) wavelength is 420 nm. In the absence of MMP inhibitory activity, the substrate is cleaved at the Gly-Leu bond resulting in an increase of relative fluorescence. Inhibition is observed as a reduced rate of increase in relative fluorescence.
The inhibitors are analyzed using a single low enzyme concentration with a single substrate concentration fixed at or below the Km. This protocol is a modification of method by Knight et al., FEBS Lett., 296(3), 263-266 (1992). Apparent inhibitory constants are determined by non-linear regression of reaction velocity as a function of inhibitor and enzyme concentration using Morrison's equation, as described by Kuzmic, Anal. Biochem. 286, 45-50 (2000). Modifications were made in the non-linear regression method to allow a common control reaction rate and effective enzyme concentration to be shared between all dose-response relationships on a given assay plate. […]

Human recombinant MMP-12 = biological target: T4, Human recombinant MMP-12 (Homo sapiens, UniProt P39900); assay: In vitro MMP inhibition assay, MMP-12 catalytic domain (fluorogenic peptide substrate cleavage, Ki); settings: human MMP-12, catalytic domain (CD); read-out: hMMP Ki 12/CD
T4 construct: The catalytic domain of MMP-12 and MMP-15 enzymes were purchased commercially for these assays; purchased
T4 sequence (P39900 106-263 limits assumed): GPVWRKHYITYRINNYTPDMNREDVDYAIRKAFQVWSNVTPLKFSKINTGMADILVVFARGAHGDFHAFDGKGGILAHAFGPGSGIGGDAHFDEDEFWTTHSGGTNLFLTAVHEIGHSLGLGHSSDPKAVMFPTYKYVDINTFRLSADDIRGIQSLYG
Experimental: as §1, §2
The catalytic domain of MMP-12 and MMP-15 enzymes were purchased commercially for these assays.
as §4, §5, §6
The inhibitors are analyzed using a single low enzyme concentration with a single substrate concentration fixed at or below the Km. This protocol is a modification of method by Knight et al., FEBS Lett., 296(3), 263-266 (1992). Apparent inhibitory constants are determined by non-linear regression of reaction velocity as a function of inhibitor and enzyme concentration using Morrison's equation, as described by Kuzmic, Anal. Biochem. 286, 45-50 (2000). Modifications were made in the non-linear regression method to allow a common control reaction rate and effective enzyme concentration to be shared between all dose-response relationships on a given assay plate. Since the substrate concentration was chosen to be at or below the Km, the apparent Ki's from this analysis were reported as Ki's without correction for the influence of substrate.

Ki (Human recombinant MMP-7): > 10 µM
Ki (Human recombinant MMP-2): 5.65 µM
Ki (Human recombinant MMP-14): > 10 µM
Ki (Human recombinant MMP-12): 6.53 µM
SMILES: COc1cccc(CNC(=O)c2nc3ccc(F)c(OCCC4CCN(C(=O)CO)CC4)c3c(=O)[nH]2)c1 [Example 34, 6-fluoro-5-[2-(1-glycoloylpiperidin-4-yl)ethoxy]-N-(3-methoxybenzyl)-4-oxo-3,4-dihydroquinazoline-2-carboxamide]
